Source: ChEMBL document CHEMBL1926642, “Relevance of the C-5 position to schweinfurthin induced cytotoxicity” (2011)

Columns and labels:
Format in all cases: functional
COLO 205 = experiment: Growth inhibition of human COLO205 cells after 48 hrs by sulforhodamine B assay; settings: COLO 205, 48 h
M14 = experiment: Growth inhibition of human M14 cells after 48 hrs by sulforhodamine B assay; settings: M14, 48 h
KM12 = experiment: Growth inhibition of human KM12 cells after 48 hrs by sulforhodamine B assay; settings: KM12, 48 h
UACC-257 = experiment: Growth inhibition of human UACC257 cells after 48 hrs by sulforhodamine B assay; settings: UACC-257, 48 h
DU-145 = experiment: Growth inhibition of human DU145 cells after 48 hrs by sulforhodamine B assay; settings: DU-145, 48 h
EKVX = experiment: Growth inhibition of human EKVX cells after 48 hrs by sulforhodamine B assay
SR = experiment: Growth inhibition of human SR cells after 48 hrs by sulforhodamine B assay
U-251 = experiment: Growth inhibition of human U251 cells after 48 hrs by sulforhodamine B assay; settings: U-251, 48 h
K562 = experiment: Growth inhibition of human K562 cells after 48 hrs by sulforhodamine B assay; settings: K562, 48 h
TK-10 = experiment: Growth inhibition of human TK10 cells after 48 hrs by sulforhodamine B assay; settings: TK-10, 48 h
SNB-75 = experiment: Growth inhibition of human SNB75 cells after 48 hrs by sulforhodamine B assay; settings: SNB-75, 48 h
OVCAR-8 = experiment: Growth inhibition of human OVCAR8 cells after 48 hrs by sulforhodamine B assay; settings: OVCAR-8, 48 h
786-0 = experiment: Growth inhibition of human 786-0 cells after 48 hrs by sulforhodamine B assay; settings: 786-0, 48 h
A549 = experiment: Growth inhibition of human A549 cells after 48 hrs by sulforhodamine B assay; settings: A549, 48 h
HOP-62 = experiment: Growth inhibition of human HOP62 cells after 48 hrs by sulforhodamine B assay; settings: HOP-62, 48 h
HT-29 = experiment: Growth inhibition of human HT-29 cells after 48 hrs by sulforhodamine B assay; settings: HT-29, 48 h
MDA-MB-435 = experiment: Growth inhibition of human MDA-MB-435 cells after 48 hrs by sulforhodamine B assay; settings: MDA-MB-435, 48 h
IGROV-1 = experiment: Growth inhibition of human IGROV1 cells after 48 hrs by sulforhodamine B assay; settings: IGROV-1, 48 h
SK-MEL-5 = experiment: Growth inhibition of human SK-MEL-5 cells after 48 hrs by sulforhodamine B assay; settings: SK-MEL-5, 48 h
CAKI-1 = experiment: Growth inhibition of human Caki1 cells after 48 hrs by sulforhodamine B assay; settings: CAKI-1, 48 h
PC-3 = experiment: Growth inhibition of human PC3 cells after 48 hrs by sulforhodamine B assay; settings: PC-3, 48 h
UO-31 = experiment: Growth inhibition of human UO31 cells after 48 hrs by sulforhodamine B assay; settings: UO-31, 48 h
SW-620 = experiment: Growth inhibition of human SW620 cells after 48 hrs by sulforhodamine B assay; settings: SW-620, 48 h
NCI-H460 = experiment: Growth inhibition of human NCI-H460 cells after 48 hrs by sulforhodamine B assay; settings: NCI-H460, 48 h
BT-549 = experiment: Growth inhibition of human BT549 cells after 48 hrs by sulforhodamine B assay; settings: BT-549, 48 h
MCF7 = experiment: Growth inhibition of human MCF7 cells after 48 hrs by sulforhodamine B assay; settings: MCF7, 48 h
SF-295 = experiment: Growth inhibition of human SF295 cells after 48 hrs by sulforhodamine B assay; settings: SF-295, 48 h
[1] = read-out: pLC50 (the source's name) (converted)

Question: `COc1cc(/C=C/c2cc3c(c(SC)c2)O[C@]2(C)CC[C@@H](O)C(C)(C)[C@H]2C3)cc(O)c1C/C=C(\C)CCC=C(C)C` was tested. Which GI50 (COLO 205) did it give?
Answer: 1.35 µM

Question: And the LC50 (COLO 205)?
Answer: 7.08 µM

Question: And the TGI (COLO 205; read-out: pTGI (converted))?
Answer: 3.09 µM

Question: What about the GI50 (M14) of the same molecule?
Answer: 8.13 µM

Question: What about the LC50 (M14) of the same molecule?
Answer: 95.5 µM

Question: And the TGI (M14; read-out: pTGI (converted))?
Answer: 28.8 µM

Question: And the GI50 (KM12)?
Answer: 4.27 µM

Question: What about the LC50 (KM12) of the same molecule?
Answer: 83.2 µM

Question: And the TGI (KM12; read-out: pTGI (converted))?
Answer: 20.4 µM

Question: What about the GI50 (UACC-257) of the same molecule?
Answer: 14.5 µM

Question: What about the LC50 (UACC-257) of the same molecule?
Answer: > 100 µM

Question: What about the TGI (UACC-257; read-out: pTGI (converted)) of the same molecule?
Answer: 64.6 µM

Question: And the GI50 (DU-145)?
Answer: 8.71 µM

Question: And the LC50 (DU-145)?
Answer: 93.3 µM

Question: What about the TGI (DU-145; read-out: pTGI (converted)) of the same molecule?
Answer: 29.5 µM

Question: What about the GI50 (EKVX) of the same molecule?
Answer: 40.7 µM

Question: What about the LC50 (50% lethal concentration) (EKVX) of the same molecule?
Answer: > 100 µM

Question: What about the TGI (EKVX; read-out: pTGI (converted)) of the same molecule?
Answer: > 100 µM

Question: What about the GI50 (SR) of the same molecule?
Answer: 3.8 µM

Question: And the LC50 (SR)?
Answer: > 100 µM

Question: And the TGI (SR; read-out: pTGI (converted))?
Answer: > 100 µM

Question: And the GI50 (U-251)?
Answer: 5.01 µM

Question: What about the LC50 (U-251) of the same molecule?
Answer: 85.1 µM

Question: And the TGI (U-251; read-out: pTGI (converted))?
Answer: 24 µM

Question: And the GI50 (K562)?
Answer: 4.27 µM

Question: And the LC50 (K562)?
Answer: > 100 µM

Question: What about the TGI (K562; read-out: pTGI (converted)) of the same molecule?
Answer: > 100 µM

Question: What about the GI50 (TK-10) of the same molecule?
Answer: 20.9 µM

Question: What about the LC50 (TK-10) of the same molecule?
Answer: > 100 µM

Question: What about the TGI (TK-10; read-out: pTGI (converted)) of the same molecule?
Answer: > 100 µM

Question: What about the GI50 (SNB-75) of the same molecule?
Answer: 3.8 µM

Question: And the LC50 (SNB-75)?
Answer: > 100 µM

Question: And the TGI (SNB-75; read-out: pTGI (converted))?
Answer: 33.1 µM

Question: What about the GI50 (OVCAR-8) of the same molecule?
Answer: 14.8 µM

Question: And the LC50 (OVCAR-8)?
Answer: > 100 µM

Question: And the TGI (OVCAR-8; read-out: pTGI (converted))?
Answer: 41.7 µM

Question: What about the GI50 (786-0) of the same molecule?
Answer: 5.01 µM

Question: And the CC50 (786-0; [1])?
Answer: 67.6 µM

Question: What about the TGI (786-0; read-out: pTGI (converted)) of the same molecule?
Answer: 21.4 µM

Question: And the LC50 (A549)?
Answer: > 100 µM

Question: What about the GI50 (A549; read-out: GI50) of the same molecule?
Answer: 6.03 µM

Question: What about the GI50 (A549; read-out: pGI50 (converted)) of the same molecule?
Answer: 6.03 µM

Question: And the TGI (A549; read-out: pTGI (converted))?
Answer: 52.5 µM

Question: What about the GI50 (HOP-62) of the same molecule?
Answer: 12 µM

Question: What about the LC50 (HOP-62) of the same molecule?
Answer: 79.4 µM

Question: What about the TGI (HOP-62; read-out: pTGI (converted)) of the same molecule?
Answer: 30.9 µM

Question: And the GI50 (HT-29)?
Answer: 2.09 µM

Question: And the LC50 (concentration killing 50% of cells) (HT-29)?
Answer: > 100 µM

Question: And the TGI (HT-29; read-out: pTGI (converted))?
Answer: 16.2 µM

Question: What about the GI50 (MDA-MB-435) of the same molecule?
Answer: 12.9 µM

Question: What about the LC50 (MDA-MB-435) of the same molecule?
Answer: > 100 µM

Question: What about the TGI (MDA-MB-435; read-out: pTGI (converted)) of the same molecule?
Answer: 74.1 µM

Question: What about the GI50 (IGROV-1) of the same molecule?
Answer: 39.8 µM

Question: What about the LC50 (IGROV-1) of the same molecule?
Answer: > 100 µM

Question: What about the TGI (IGROV-1; read-out: pTGI (converted)) of the same molecule?
Answer: > 100 µM

Question: What about the GI50 (SK-MEL-5) of the same molecule?
Answer: 9.77 µM

Question: And the LC50 (SK-MEL-5)?
Answer: 55 µM

Question: And the TGI (SK-MEL-5; read-out: pTGI (converted))?
Answer: 23.4 µM

Question: What about the GI50 (CAKI-1) of the same molecule?
Answer: 27.5 µM

Question: What about the LC50 (CAKI-1) of the same molecule?
Answer: > 100 µM

Question: What about the TGI (CAKI-1; read-out: pTGI (converted)) of the same molecule?
Answer: > 100 µM

Question: And the GI50 (PC-3)?
Answer: 6.03 µM

Question: What about the CC50 (PC-3; [1]) of the same molecule?
Answer: > 100 µM

Question: What about the TGI (PC-3; read-out: pTGI (converted)) of the same molecule?
Answer: 51.3 µM

Question: And the GI50 (UO-31)?
Answer: 8.91 µM

Question: And the LC50 (UO-31)?
Answer: > 100 µM

Question: And the TGI (UO-31; read-out: pTGI (converted))?
Answer: > 100 µM

Question: And the GI50 (SW-620)?
Answer: 6.76 µM

Question: What about the LC50 (SW-620) of the same molecule?
Answer: 50.1 µM

Question: And the TGI (SW-620; read-out: pTGI (converted))?
Answer: 20.9 µM

Question: And the GI50 (NCI-H460)?
Answer: 3.47 µM

Question: And the LC50 (concentration killing 50% of cells) (NCI-H460)?
Answer: 51.3 µM

Question: What about the TGI (NCI-H460; read-out: pTGI (converted)) of the same molecule?
Answer: 13.8 µM

Question: What about the GI50 (BT-549) of the same molecule?
Answer: 18.6 µM

Question: What about the LC50 (BT-549) of the same molecule?
Answer: > 100 µM

Question: And the TGI (BT-549; read-out: pTGI (converted))?
Answer: > 100 µM

Question: And the GI50 (MCF7)?
Answer: 7.76 µM

Question: And the LC50 (MCF7)?
Answer: > 100 µM

Question: What about the TGI (MCF7; read-out: pTGI (converted)) of the same molecule?
Answer: 45.7 µM

Question: What about the LC50 (SF-295) of the same molecule?
Answer: > 100 µM

Question: And the GI50 (SF-295; read-out: GI50)?
Answer: 3.8 µM

Question: What about the GI50 (SF-295; read-out: pGI50 (converted)) of the same molecule?
Answer: 3.02 µM

Question: And the TGI (SF-295; read-out: pTGI (converted))?
Answer: 25.1 µM
